In brackets after ≈: the same amount, converted by molar mass. Like-named read-outs stand apart in the source and are kept apart here.
Columns and labels:
[1] = system: P. aeruginosa PAO200 mexAB; assay: MIC broth microdilution, standard panel: P. aeruginosa PAO200 mexAB; type: cell-based; details: Pseudomonas aeruginosa, PAO200MEXAB, read-out: MIC P. aeruginosa PAO200 mexAB
Description: (§1) Bacterial isolates were cultivated from −70° C. frozen stocks by two consecutive overnight passages at 35° C. in ambient air on 5% blood agar (Remel, Lenexa, Kans.). Clinical isolates tested were from a collection composed of isolates collected during clinical trials and recent clinical isolates obtained from various geographically diverse hospitals in the US. Quality control and primary panel strains were from the American Type Culture Collection (ATCC; Rockville, Md.), with the exception of P. aeruginosa PAO200, a strain with a deletion of the mexABoprM genes that was received from Dr. H. Schweizer. […] Strain Z61 (ATCC 35151) is also hypersusceptible to antibacterials. It is thought that the hypersusceptibility of this strain is the result of increased permeability of its outer membrane (Angus B L et al, Antimicrobial Agents and Chemotherapy 1982 21,299-309: Outer membrane permeability in Pseudomonas aeruginosa: Comparison of a wild-type with an antibacterial-supersusceptible mutant).
(§2) Minimum Inhibitory Concentrations (MICs) were determined by the broth microdilution method in accordance with the National Committee for Clinical Laboratory Standards (NCCLS) guidelines. In brief, organism suspensions were are adjusted to a 0.5 McFarland standard to yield a final inoculum between 3×10^5 and 7×10^5 colony-forming units (CFU)/mL. Drug dilutions and inocula were made in sterile, cation adjusted Mueller-Hinton Broth (Remel). An inoculum volume of 100 μl was added to wells containing 100 μl of broth with 2-fold serial dilutions of drug. All inoculated microdilution trays were incubated in ambient air at 35° C. for 18-24 hours. Following incubation, the lowest concentration of the drug that prevented visible growth was recorded as the MIC. Performance of the assay was monitored by the use of laboratory quality-control strains against tobramycin, that has a defined MIC spectrum, in accordance with NCCLS guidelines.

[2] = system: E. coli 25922; assay: MIC broth microdilution, standard panel: E. coli 25922; type: cell-based; details: Escherichia coli, standard panel of organisms
Description: as §1, §2

[3] = system: Enterobacter cloacae; assay: MIC vs enteric organisms: Enterobacter cloacae; type: cell-based; details: E. clo., MIC key class
Description: (§3) Bacterial isolates were cultivated from −70° C. frozen stocks by two consecutive overnight passages at 35° C. in ambient air on 5% blood agar (Remel, Lenexa, Kans.). Clinical isolates tested were from a collection composed of isolates collected during clinical trials and recent clinical isolates obtained from various geographically diverse hospitals in the US. Quality control and primary panel strains were from the American Type Culture Collection (ATCC; Rockville, Md.), with the exception of P. aeruginosa PAO200, a strain with a deletion of the mexABoprM genes that was received from Dr. H. Schweizer.
as §2, with “MIC.” for “MIC. Performance of the assay was monitored by the use of laboratory quality-control strains against tobramycin, that has a defined MIC spectrum, in accordance with NCCLS guidelines.”

[4] = system: Pseudomonas aeruginosa cystic fibrosis isolate 2196; assay: MIC vs cystic fibrosis isolate of P. aeruginosa 2196 (resistant to ciprofloxacin); type: cell-based; details: strain 2196, Cipro R, LpxC inhibitors, MIC key class
Description: as §3
as §2, with “MIC.” for “MIC. Performance of the assay was monitored by the use of laboratory quality-control strains against tobramycin, that has a defined MIC spectrum, in accordance with NCCLS guidelines.”

[5] = system: Pseudomonas aeruginosa cystic fibrosis isolate 3317; assay: MIC vs cystic fibrosis isolate of P. aeruginosa 3317 (resistant to aztreonam); type: cell-based; details: strain 3317, Aztr. R, LpxC inhibitors, MIC key class
Description: as §3
as §2, with “MIC.” for “MIC. Performance of the assay was monitored by the use of laboratory quality-control strains against tobramycin, that has a defined MIC spectrum, in accordance with NCCLS guidelines.”

[6] = target: T1, P. aeruginosa LpxC (Pseudomonas aeruginosa, UniProt P47205); assay: P. aeruginosa LpxC Inhibition Assay; type: biochemical
T1 sequence (P47205 1-303): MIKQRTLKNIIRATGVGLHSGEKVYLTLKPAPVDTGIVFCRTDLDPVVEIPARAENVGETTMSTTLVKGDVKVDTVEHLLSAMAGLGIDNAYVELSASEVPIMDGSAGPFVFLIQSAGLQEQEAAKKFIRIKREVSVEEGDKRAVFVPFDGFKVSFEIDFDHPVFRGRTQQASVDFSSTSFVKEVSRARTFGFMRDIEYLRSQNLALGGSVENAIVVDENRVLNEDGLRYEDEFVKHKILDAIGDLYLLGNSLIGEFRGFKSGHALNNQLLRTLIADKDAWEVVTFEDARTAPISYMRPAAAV
Description: The assay followed the general method of Hyland et al (Journal of Bacteriology 1997 179, 2029-2037: Cloning, expression and purification of UDP-3-O-acyl-GlcNAc deacetylase from Pseudomonas aeruginosa: a metalloamidase of the lipid A biosynthesis pathway) and the radiolabeling procedure is according to Kline et al. supra. Briefly, samples were incubated with 2 nM P. aeruginosa LpxC and 150 nM [3H-Ac]-UDP-3-OR-3-hydroxydecanoyl)-GlcNAc in a total volume of 50 uL for 90 min at room temperature. Reactions were carried out in 96-well polypropylene plates in 50 mM sodium phosphate buffer, pH 7.5, containing 1 mg/mL BSA. Reactions were stopped by the addition of 180 uL of a 3% suspension of activated charcoal powder in 100 mM sodium acetate, pH 7.5. Supernatants were clarified by centrifugation. A portion of the clarified supernatant, containing the enzymatically released [3H]-acetate, was transferred to opaque white 96-well plates containing scintillation fluid. The radioactivity was measured in a Perkin-Elmer/Wallac Trilux Microbeta counter.

[7] = system: Pseudomonas aeruginosa cystic fibrosis isolate 3206; assay: microbe, parasite or virus in culture; type: cell-based
Description: as §3
as §2, with “MIC.” for “MIC. Performance of the assay was monitored by the use of laboratory quality-control strains against tobramycin, that has a defined MIC spectrum, in accordance with NCCLS guidelines.”

[8] = system: Pseudomonas aeruginosa cystic fibrosis isolate 1145; assay: microbe, parasite or virus in culture; type: cell-based
Description: as §3
as §2, with “MIC.” for “MIC. Performance of the assay was monitored by the use of laboratory quality-control strains against tobramycin, that has a defined MIC spectrum, in accordance with NCCLS guidelines.”

[9] = system: Klebsiella pneumoniae; assay: MIC vs enteric organisms: Klebsiella pneumoniae; type: cell-based; details: K. pneu., MIC key class
Description: as §3
as §2, with “MIC.” for “MIC. Performance of the assay was monitored by the use of laboratory quality-control strains against tobramycin, that has a defined MIC spectrum, in accordance with NCCLS guidelines.”

[10] = system: Acinetobacter calcoaceticus; assay: MIC vs non-fermenting organisms: Acinetobacter calcoaceticus; type: cell-based; details: Acinet. calc., MIC key class
Description: as §3
as §2, with “MIC.” for “MIC. Performance of the assay was monitored by the use of laboratory quality-control strains against tobramycin, that has a defined MIC spectrum, in accordance with NCCLS guidelines.”

[11] = system: Klebsiella oxytoca; assay: MIC vs enteric organisms: Klebsiella oxytoca; type: cell-based; details: K. oxy., MIC key class
Description: as §3
as §2, with “MIC.” for “MIC. Performance of the assay was monitored by the use of laboratory quality-control strains against tobramycin, that has a defined MIC spectrum, in accordance with NCCLS guidelines.”

[12] = system: Pseudomonas aeruginosa cystic fibrosis isolate 3236; assay: MIC vs cystic fibrosis isolate of P. aeruginosa 3236 (sensitive to most antibacterials); type: cell-based; details: strain 3236, Sensitive, LpxC inhibitors, MIC key class
Description: as §3
as §2, with “MIC.” for “MIC. Performance of the assay was monitored by the use of laboratory quality-control strains against tobramycin, that has a defined MIC spectrum, in accordance with NCCLS guidelines.”

[13] = system: Serratia marcescens; assay: MIC vs enteric organisms: Serratia marcescens; type: cell-based; details: S. marc., MIC key class
Description: as §3
as §2, with “MIC.” for “MIC. Performance of the assay was monitored by the use of laboratory quality-control strains against tobramycin, that has a defined MIC spectrum, in accordance with NCCLS guidelines.”

[14] = system: Pseudomonas aeruginosa cystic fibrosis isolate 3224; assay: MIC vs cystic fibrosis isolate of P. aeruginosa 3224; type: cell-based; details: strain 3224, Tobra R, LpxC inhibitors, MIC key class
Description: as §3
as §2, with “MIC.” for “MIC. Performance of the assay was monitored by the use of laboratory quality-control strains against tobramycin, that has a defined MIC spectrum, in accordance with NCCLS guidelines.”

[15] = strain 3206, MDR, LpxC inhibitors, MIC key class, read-out: MIC
[16] = strain 1145, MDR, LpxC inhibitors, MIC key class, read-out: MIC
[17] = 2 nM P. aeruginosa LpxC, 90 min, room temperature, read-out: IC50 (nM), Enzyme inhibitory activity

SMILES | MIC [1] [µg/mL] | MIC [2] [µg/mL] | MIC [3] [µg/mL] | MIC [4] [µg/mL] | MIC [5] [µg/mL] | IC50 [6] [nM] | MIC [7] [µg/mL] | MIC [8] [µg/mL] | MIC [9] [µg/mL] | MIC [10] [µg/mL] | MIC [11] [µg/mL] | MIC [12] [µg/mL] | MIC [13] [µg/mL] | MIC [14] [µg/mL] | MIC [7, 15] [µg/mL] | MIC [8, 16] [µg/mL] | IC50 [6, 17] [nM]
C[C@@H](O)[C@H](NC(=O)c1ccc(C#Cc2ccccc2)cc1)C(=O)NO [Example 12, N-(1-(N-hydroxycarbamoyl)(1S,2R)-2-hydroxypropyl)[4-(2-phenylethynyl)phenyl]carboxamide] | < 6.25 | < 6.25 | < 6.25 | 6.25 to 50 (≈ 18.5 to 148 µM) | < 6.25 | < 100 | < 6.25 | < 6.25 | < 6.25 | < 6.25 | < 6.25 | < 6.25 | < 6.25 | < 6.25 | – | – | –
C[C@@H](N)[C@H](NC(=O)c1ccc(C#Cc2ccccc2)cc1)C(=O)NO [Example 13] | < 6.25 | < 6.25 | < 6.25 | < 6.25 | < 6.25 | < 100 | – | – | < 6.25 | > 50 | < 6.25 | < 6.25 | < 6.25 | < 6.25 | < 6.25 | < 6.25 | –
C[C@@H](O)[C@H](NC(=O)c1ccc(C#CC#Cc2ccccc2)cc1)C(=O)NO [Example 19, N-(1-(N-hydroxycarbamoyl)(1S,2R)-2-hydroxypropyl)[4-(4-phenylbuta-1,3-diynyl)phenyl]carboxamide] | < 6.25 | < 6.25 | < 6.25 | < 6.25 | < 6.25 | < 100 | – | – | < 6.25 | < 6.25 | < 6.25 | < 6.25 | < 6.25 | < 6.25 | < 6.25 | < 6.25 | –
CCc1ccc(-c2ccc(C(=O)N[C@@H](CN)C(=O)NO)cc2)cc1 [Example 280, N-[(1S)-1-(aminomethyl)-2-(hydroxyamino)-2-oxoethyl]-4′-ethyl-1,1-biphenyl-4-carboxamide] | < 6.25 | < 6.25 | < 6.25 | 6.25 to 50 (≈ 19.1 to 153 µM) | < 6.25 | – | – | – | 6.25 to 50 (≈ 19.1 to 153 µM) | > 50 | > 50 | < 6.25 | 6.25 to 50 (≈ 19.1 to 153 µM) | < 6.25 | < 6.25 | < 6.25 | < 100
C[C@@H](O)[C@H](NC(=O)c1ccc(-c2ccc(Br)cc2)cc1)C(=O)NO [Example 315, 4′-bromo-N-{(1S,2R)-2-hydroxy-1-[(hydroxyamino)carbonyl]propyl}-1,1′-biphenyl-4-carboxamide] | < 6.25 | < 6.25 | < 6.25 | < 6.25 | < 6.25 | – | – | – | > 50 | > 50 | > 50 | < 6.25 | 6.25 to 50 (≈ 15.9 to 127 µM) | < 6.25 | < 6.25 | < 6.25 | < 100
NC[C@H](NC(=O)c1ccc(C#CC#Cc2ccccc2)cc1)C(=O)NO [Example 481, N-[(1S)-1-(aminomethyl)-2-(hydroxyamino)-2-oxoethyl]-4-(4-phenylbuta-1,3-diynyl)benzamide] | < 6.25 | < 6.25 | < 6.25 | < 6.25 | < 6.25 | – | – | – | < 6.25 | > 50 | < 6.25 | < 6.25 | < 6.25 | < 6.25 | < 6.25 | < 6.25 | < 100
NC[C@H](NC(=O)c1ccc(C#Cc2ccc(NC(=O)CNC3CC3)cc2)cc1)C(=O)NO [Example 516, N-[(1S)-1-(aminomethyl)-2-(hydroxyamino)-2-oxoethyl]-4-[(4-{[(cyclopropylamino)acetyl]amino}phenyl)ethynyl]benzamide] | < 6.25 | < 6.25 | 6.25 to 50 (≈ 14.4 to 115 µM) | < 6.25 | < 6.25 | – | – | – | > 50 | > 50 | > 50 | < 6.25 | < 6.25 | < 6.25 | < 6.25 | < 6.25 | < 100
C[C@@H](O)[C@H](NC(=O)c1ccc(C#CC#Cc2ccc(NC(=O)CNc3ccccc3)cc2)cc1)C(=O)NO [Example 777, N-{(1S,2R)-2-hydroxy-1-[(hydroxyamino)carbonyl]propyl}-4-[4-(4-{[(phenylamino)acetyl]amino}phenyl)buta-1,3-diynyl]benzamide] | < 6.25 | < 6.25 | < 6.25 | < 6.25 | < 6.25 | – | – | – | < 6.25 | < 6.25 | < 6.25 | < 6.25 | < 6.25 | < 6.25 | < 6.25 | < 6.25 | < 100
CCc1ccc(-c2ccc(C(=O)N[C@H](C(=O)NO)[C@@H](C)N)cc2)cc1 [Example 779, N-{(1S,2R)-2-amino-1-[(hydroxyamino)carbonyl]propyl)-4′-ethyl-1,1′-biphenyl-4-carboxamide] | < 6.25 | < 6.25 | < 6.25 | < 6.25 | < 6.25 | < 100 | – | – | 6.25 to 50 (≈ 18.3 to 146 µM) | > 50 | 6.25 to 50 (≈ 18.3 to 146 µM) | < 6.25 | < 6.25 | < 6.25 | < 6.25 | < 6.25 | –

Reference: patent US7358359B2, “Antibacterial agents” (University of Washington, priority 2003, dated 2008)
